Read-outs that look alike come from different tables or passages of the source. Blank lines part the entries; values can stand above or below the compound they belong to.
Tests used:
Jurkat = assay: Tumor cell proliferation inhibition (CellTiter-Meiluncell Luminescent Cell Viability Assay), Jurkat; settings: Homo sapiens, 96 h, read-out: inhibitory activity (IC50, nM) against tumor cells proliferation, Jurkat
[1] = biological target: T1, human Cereblon WT GST-tagged protein (Homo sapiens, UniProt Q96SW2); assay: CRBN-binding affinity by HTRF (CEREBLON BINDING kit); settings: HTRF inhibitory activity, CEREBLON BINDING kit; read-out: HTRF IC50
T1 construct: purchased CISBIO 64BDCRBNPEH
T1 sequence (Q96SW2 whole entry): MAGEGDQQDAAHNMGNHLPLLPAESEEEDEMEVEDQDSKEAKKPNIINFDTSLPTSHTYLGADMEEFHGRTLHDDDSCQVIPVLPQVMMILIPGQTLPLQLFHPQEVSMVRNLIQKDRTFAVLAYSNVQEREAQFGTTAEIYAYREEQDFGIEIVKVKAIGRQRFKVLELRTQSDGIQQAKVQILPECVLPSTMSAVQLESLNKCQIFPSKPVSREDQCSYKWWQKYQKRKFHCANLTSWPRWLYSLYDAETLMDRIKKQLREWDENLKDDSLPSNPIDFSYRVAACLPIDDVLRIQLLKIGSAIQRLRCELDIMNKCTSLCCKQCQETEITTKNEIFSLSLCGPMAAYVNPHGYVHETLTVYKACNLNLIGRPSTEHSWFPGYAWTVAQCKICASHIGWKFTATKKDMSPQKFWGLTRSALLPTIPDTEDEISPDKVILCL

MGC803 = assay: Tumor cell proliferation inhibition (CellTiter-Meiluncell Luminescent Cell Viability Assay), MGC803; settings: Homo sapiens, MGC-803, 96 h, read-out: inhibitory activity (IC50, nM) against tumor cells proliferation, MGC803
[2] = tested on: Human breast cancer cells (MDA-MB-231); assay: Tumor cell proliferation inhibition (CellTiter-Meiluncell Luminescent Cell Viability Assay), MDA-MB-231; settings: MDA-MB-231, 96 h, read-out: inhibitory activity (IC50, nM) against tumor cells proliferation, MDA-MB-231
Vcap = assay: Tumor cell proliferation inhibition (CellTiter-Meiluncell Luminescent Cell Viability Assay), Vcap; settings: Homo sapiens, 96 h, read-out: inhibitory activity (IC50, nM) against tumor cells proliferation, Vcap
SW620 = assay: Tumor cell proliferation inhibition (CellTiter-Meiluncell Luminescent Cell Viability Assay), SW620; settings: Homo sapiens, SW-620, 96 h, read-out: inhibitory activity (IC50, nM) against tumor cells proliferation, SW620
Procedure: (§1) The tumor cells used herein were cultured in a cell culture medium listed in table 2 at 37°C in an incubator with 5% CO2. Prior to experimentation, all cell lines used were correctly identified by STR profiling, and tested negative for mycoplasma contamination using a mycoplasma detection kit through routine screenings.
(§2) On the following day, the test compounds of the present disclosure were subjected to serial dilution. […] Subsequently, 0.5 µL of the test compound dilution was transferred into the 96-well plate containing the cells, with each well containing 100 µL of cell culture medium. […] Into the 96-well plate, the diluted test compounds and corresponding detection reagents were added, resulting in final test compound concentrations of 500 nM and 10 nM, respectively. The experimental procedure is described below using the diluted 2 µM test compound as an example.
(§3) After the cells were treated with the compounds of the present disclosure for a specified period (the treatment durations were shown in Table 3), the cell viability assay reagent was added to the culture medium according to the kit's instructions to determine cell viability. […] All controls were treated using the same procedure as the compounds of the present disclosure. The growth inhibition curves for the compounds of the present disclosure were plotted using Prism GraphPad software, and the IC50 values were calculated therefrom.

[3] = tested on: Human acute T lymphocytic leukemia cells (Molt-4); assay: Tumor cell proliferation inhibition (CellTiter-Meiluncell Luminescent Cell Viability Assay), Molt-4; settings: MOLT-4, 96 h, read-out: inhibitory activity (IC50, nM) against tumor cells proliferation, Molt 4
CK1α = biological target: T2, CK1α (Homo sapiens, UniProt P48729+Q96SW2); assay: Western-blot assay of substrate protein degradation in hPBMCs, CK1α; assay type: cell-based; settings: 24 hours of compound treatment
T2 construct: endogenous in cells; host or cells: hPBMCs (Milecell Biotechnologies)
T2 sequence (P48729 whole entry): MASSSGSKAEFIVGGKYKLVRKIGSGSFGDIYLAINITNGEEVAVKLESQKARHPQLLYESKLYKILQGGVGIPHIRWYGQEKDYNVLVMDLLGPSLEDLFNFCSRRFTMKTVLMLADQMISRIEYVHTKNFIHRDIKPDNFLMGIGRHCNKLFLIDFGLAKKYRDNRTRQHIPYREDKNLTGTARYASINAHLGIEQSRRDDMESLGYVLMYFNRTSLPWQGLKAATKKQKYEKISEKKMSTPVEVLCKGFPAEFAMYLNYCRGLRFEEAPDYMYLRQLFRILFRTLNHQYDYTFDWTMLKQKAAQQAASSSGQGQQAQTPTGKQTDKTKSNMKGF
T2 sequence (Q96SW2 whole entry): as the sequence (Q96SW2 whole entry) above
T2 sequence (Q16531 whole entry partner): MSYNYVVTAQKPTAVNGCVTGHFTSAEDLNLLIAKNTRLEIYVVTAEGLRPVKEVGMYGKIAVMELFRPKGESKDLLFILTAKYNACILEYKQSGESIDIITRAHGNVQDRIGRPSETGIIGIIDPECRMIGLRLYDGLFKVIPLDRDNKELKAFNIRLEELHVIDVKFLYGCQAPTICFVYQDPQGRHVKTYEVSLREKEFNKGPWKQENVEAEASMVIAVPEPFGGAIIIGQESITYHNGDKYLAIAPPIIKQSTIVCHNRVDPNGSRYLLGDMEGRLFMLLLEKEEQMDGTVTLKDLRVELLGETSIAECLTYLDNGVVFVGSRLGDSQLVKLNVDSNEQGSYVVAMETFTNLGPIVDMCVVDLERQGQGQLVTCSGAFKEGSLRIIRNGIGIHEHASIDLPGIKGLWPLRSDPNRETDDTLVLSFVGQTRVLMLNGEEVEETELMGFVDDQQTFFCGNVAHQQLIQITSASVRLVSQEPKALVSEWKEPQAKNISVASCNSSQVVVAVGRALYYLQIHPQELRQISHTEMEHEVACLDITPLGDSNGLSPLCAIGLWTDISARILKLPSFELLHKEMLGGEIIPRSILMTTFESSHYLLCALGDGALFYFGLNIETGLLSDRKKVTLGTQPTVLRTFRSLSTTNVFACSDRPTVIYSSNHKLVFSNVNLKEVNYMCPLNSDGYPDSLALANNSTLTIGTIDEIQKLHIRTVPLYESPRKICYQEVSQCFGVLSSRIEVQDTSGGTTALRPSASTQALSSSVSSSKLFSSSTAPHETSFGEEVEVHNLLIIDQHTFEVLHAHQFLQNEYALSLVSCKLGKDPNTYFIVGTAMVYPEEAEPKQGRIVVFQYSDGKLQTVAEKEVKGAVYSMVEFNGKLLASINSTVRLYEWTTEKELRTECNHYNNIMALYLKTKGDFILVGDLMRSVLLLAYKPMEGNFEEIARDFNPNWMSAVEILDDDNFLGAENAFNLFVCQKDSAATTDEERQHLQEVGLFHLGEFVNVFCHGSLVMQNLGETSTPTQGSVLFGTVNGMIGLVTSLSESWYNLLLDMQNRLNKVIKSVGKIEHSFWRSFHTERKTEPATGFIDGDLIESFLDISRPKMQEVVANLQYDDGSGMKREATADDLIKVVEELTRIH

IKZF2 = biological target: T3, IKZF2 (Homo sapiens, UniProt Q96SW2+Q9UKS7); assay: Western-blot assay of substrate protein degradation in hPBMCs, IKZF2; assay type: cell-based; settings: 24 hours of compound treatment
T3 construct: endogenous in cells; host or cells: hPBMCs (Milecell Biotechnologies)
T3 sequence (Q9UKS7 whole entry): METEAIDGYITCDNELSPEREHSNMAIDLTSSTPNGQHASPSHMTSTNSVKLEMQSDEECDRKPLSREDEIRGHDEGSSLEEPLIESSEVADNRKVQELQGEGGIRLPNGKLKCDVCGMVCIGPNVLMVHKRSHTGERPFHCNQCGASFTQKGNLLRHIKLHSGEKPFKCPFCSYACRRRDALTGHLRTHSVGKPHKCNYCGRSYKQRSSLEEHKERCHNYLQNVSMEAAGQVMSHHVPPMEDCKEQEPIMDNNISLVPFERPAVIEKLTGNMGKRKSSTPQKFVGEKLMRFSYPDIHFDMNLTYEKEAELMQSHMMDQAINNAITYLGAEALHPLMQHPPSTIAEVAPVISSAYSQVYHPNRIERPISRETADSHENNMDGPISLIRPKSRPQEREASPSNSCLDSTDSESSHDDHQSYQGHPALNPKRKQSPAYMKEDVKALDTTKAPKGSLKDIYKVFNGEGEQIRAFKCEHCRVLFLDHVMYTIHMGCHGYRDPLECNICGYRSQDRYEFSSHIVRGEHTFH
T3 sequence (Q96SW2 whole entry): as the sequence (Q96SW2 whole entry) above
T3 sequence (Q16531 whole entry partner): as the sequence (Q16531 whole entry partner) above

MM.1R = assay: Tumor cell proliferation inhibition (CellTiter-Meiluncell Luminescent Cell Viability Assay), MM.1R; settings: Homo sapiens, 96 h, read-out: inhibitory activity (IC50, nM) against tumor cells proliferation, MM.1R
SR = assay: Tumor cell proliferation inhibition (CellTiter-Meiluncell Luminescent Cell Viability Assay), SR; settings: Homo sapiens, 96 h, read-out: inhibitory activity (IC50, nM) against tumor cells proliferation, SR
Procedure: as §1
(§4) On the following day, the test compounds of the present disclosure were subjected to serial dilution. […] Subsequently, 0.5 µL of the test compound dilution was transferred into the 96-well plate containing the cells, with each well containing 100 µL of cell culture medium. […] Into the 96-well plate, the diluted test compounds and corresponding detection reagents were added, resulting in final test compound concentrations of 500 nM and 10 nM, respectively.
as §3

NCI-H1975 = assay: Tumor cell proliferation inhibition (CellTiter-Meiluncell Luminescent Cell Viability Assay), NCI-H1975; settings: Homo sapiens, NCI-H1975, 96 h, read-out: inhibitory activity (IC50, nM) against tumor cells proliferation, H1975
Procedure: as §1, §2, §3

IKZF1 = biological target: T4, IKZF1 (Homo sapiens, UniProt Q13422+Q96SW2); assay: Western-blot assay of substrate protein degradation in hPBMCs, IKZF1; assay type: cell-based; settings: 24 hours of compound treatment
T4 construct: endogenous in cells; host or cells: hPBMCs (Milecell Biotechnologies)
T4 sequence (Q13422 whole entry): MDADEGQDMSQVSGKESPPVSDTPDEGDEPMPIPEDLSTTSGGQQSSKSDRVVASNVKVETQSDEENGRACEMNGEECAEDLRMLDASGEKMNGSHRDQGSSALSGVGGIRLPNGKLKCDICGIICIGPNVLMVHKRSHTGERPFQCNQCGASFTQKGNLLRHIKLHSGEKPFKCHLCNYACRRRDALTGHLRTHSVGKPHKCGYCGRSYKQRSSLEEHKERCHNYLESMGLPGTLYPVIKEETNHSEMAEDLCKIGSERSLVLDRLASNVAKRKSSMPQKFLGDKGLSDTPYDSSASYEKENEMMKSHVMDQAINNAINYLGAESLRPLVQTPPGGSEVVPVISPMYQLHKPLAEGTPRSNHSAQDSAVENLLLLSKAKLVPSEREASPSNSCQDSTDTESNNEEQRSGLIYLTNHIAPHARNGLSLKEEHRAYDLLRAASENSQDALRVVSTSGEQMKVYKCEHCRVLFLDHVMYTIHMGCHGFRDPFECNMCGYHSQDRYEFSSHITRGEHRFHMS
T4 sequence (Q96SW2 whole entry): as the sequence (Q96SW2 whole entry) above
T4 sequence (Q16531 whole entry partner): as the sequence (Q16531 whole entry partner) above

GSPT1 = biological target: T5, GSPT1 (Homo sapiens, UniProt P15170+Q96SW2); assay: Western-blot assay of substrate protein degradation in hPBMCs, GSPT1; assay type: cell-based; settings: 24 hours of compound treatment
T5 construct: endogenous in cells; host or cells: hPBMCs (Milecell Biotechnologies)
T5 sequence (P15170 whole entry): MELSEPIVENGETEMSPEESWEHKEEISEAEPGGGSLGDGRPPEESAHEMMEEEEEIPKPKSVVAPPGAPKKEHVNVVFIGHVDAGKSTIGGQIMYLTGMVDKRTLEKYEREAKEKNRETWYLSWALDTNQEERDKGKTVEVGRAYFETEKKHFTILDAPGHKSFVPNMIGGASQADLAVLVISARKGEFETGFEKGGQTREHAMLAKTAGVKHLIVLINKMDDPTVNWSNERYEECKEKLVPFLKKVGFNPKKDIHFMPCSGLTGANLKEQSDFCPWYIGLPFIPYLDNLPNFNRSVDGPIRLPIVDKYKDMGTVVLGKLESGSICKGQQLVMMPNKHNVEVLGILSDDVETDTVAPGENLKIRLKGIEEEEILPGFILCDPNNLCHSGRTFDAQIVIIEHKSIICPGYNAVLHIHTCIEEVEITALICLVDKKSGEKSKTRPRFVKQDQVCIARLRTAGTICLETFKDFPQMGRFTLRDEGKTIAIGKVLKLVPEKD
T5 sequence (Q96SW2 whole entry): as the sequence (Q96SW2 whole entry) above
T5 sequence (Q16531 whole entry partner): as the sequence (Q16531 whole entry partner) above

IKZF3 = biological target: T6, IKZF3 (Homo sapiens, UniProt Q96SW2+Q9UKT9); assay: Western-blot assay of substrate protein degradation in hPBMCs, IKZF3; assay type: cell-based; settings: 24 hours of compound treatment
T6 construct: endogenous in cells; host or cells: hPBMCs (Milecell Biotechnologies)

CAL-62 = assay: Tumor cell proliferation inhibition (CellTiter-Meiluncell Luminescent Cell Viability Assay), CAL-62; settings: Homo sapiens, CAL-62, 96 h, read-out: inhibitory activity (IC50, nM) against tumor cells proliferation, CAL-62
CCRF-CEM = assay: Tumor cell proliferation inhibition (CellTiter-Meiluncell Luminescent Cell Viability Assay), CCRF-CEM; settings: Homo sapiens, 96 h, read-out: inhibitory activity (IC50, nM) against tumor cells proliferation, CCRF-CEM
WEE1 = biological target: T7, WEE1 (Homo sapiens, UniProt P30291+Q96SW2); assay: Western-blot assay of substrate protein degradation in hPBMCs, WEE1; assay type: cell-based; settings: 24 hours of compound treatment
T7 construct: endogenous in cells; host or cells: hPBMCs (Milecell Biotechnologies)
T7 sequence (P30291 whole entry): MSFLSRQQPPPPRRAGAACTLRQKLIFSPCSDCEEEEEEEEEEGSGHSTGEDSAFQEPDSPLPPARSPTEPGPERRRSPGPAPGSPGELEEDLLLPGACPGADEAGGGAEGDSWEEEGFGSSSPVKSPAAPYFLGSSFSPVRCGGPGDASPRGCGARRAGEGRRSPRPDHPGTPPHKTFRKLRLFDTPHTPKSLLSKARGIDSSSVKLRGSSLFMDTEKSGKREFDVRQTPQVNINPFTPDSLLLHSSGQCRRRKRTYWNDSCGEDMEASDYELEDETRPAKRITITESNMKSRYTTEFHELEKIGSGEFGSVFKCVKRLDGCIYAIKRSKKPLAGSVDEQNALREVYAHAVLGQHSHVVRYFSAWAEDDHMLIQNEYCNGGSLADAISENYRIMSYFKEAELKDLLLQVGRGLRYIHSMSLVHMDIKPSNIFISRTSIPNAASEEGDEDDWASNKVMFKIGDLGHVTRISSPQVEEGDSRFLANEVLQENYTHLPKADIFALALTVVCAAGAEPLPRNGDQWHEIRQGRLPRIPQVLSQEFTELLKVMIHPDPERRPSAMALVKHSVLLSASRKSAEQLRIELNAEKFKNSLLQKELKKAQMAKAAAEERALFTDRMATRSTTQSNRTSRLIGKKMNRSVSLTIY
T7 sequence (Q96SW2 whole entry): as the sequence (Q96SW2 whole entry) above
T7 sequence (Q16531 whole entry partner): as the sequence (Q16531 whole entry partner) above

MV-4-11 = assay: Tumor cell proliferation inhibition (CellTiter-Meiluncell Luminescent Cell Viability Assay), MV-4-11
Procedure: as §1, §4, §3

[4] = compounds tested at 50 nM and 500 nM (concentration of the table not stated)
[5] = 50 nM and 500 nM tested (concentration behind the class not stated)
[6] = Homo sapiens, MV4-11, read-out: inhibitory activity (IC50, nM) against tumor cells proliferation, MV-4-11

SMILES: O=C1CCC(N2Cc3cc(CN4CCN(c5cccc(Cl)n5)CC4)ccc3C2=O)C(=O)N1 (stereo not shown) [GT-04497, 3-(5-((4-(6-chloropyridin-2-yl)piperazin-1-yl)methyl)-1-oxoisoindolin-2-yl)piperidine-2,6-dione]
- IC50 (Jurkat): 1 to 5 nM
- IC50 [1]: 500 to 1000 nM
- IC50 (MGC803): 50 to 100 nM
- IC50 [2]: 10 to 50 nM
- IC50 (Vcap): 5 to 10 nM
- IC50 (SW620): 10 to 50 nM
- IC50 [3]: 1 to 5 nM
- CK1a substrate protein remaining % (CK1α; [4]): A (0% ≤ substrate protein remaining % ≤ 80%)
- IKZF2 substrate protein remaining % (IKZF2; [4]): A (0% ≤ substrate protein remaining % ≤ 80%)
- IC50 (MM.1R): 1 to 5 nM
- IC50 (SR): 10 to 50 nM
- IC50 (NCI-H1975): 10 to 50 nM
- IKZF 1 substrate protein remaining % (IKZF1; [4]): A (0% ≤ substrate protein remaining % ≤ 80%)
- GSPT1 substrate protein remaining % (GSPT1; [4]): A (0% ≤ substrate protein remaining % ≤ 80%)
- IKZF3 substrate protein remaining % (IKZF3; [4]): A (0% ≤ substrate protein remaining % ≤ 80%)
- IC50 (CAL-62): 1 to 5 nM
- IC50 (CCRF-CEM): 1 to 5 nM
- Weel substrate protein remaining % (WEE1; [4]): A (0% ≤ substrate protein remaining % ≤ 80%)

SMILES: Cc1cscc1C1=CCN(Cc2ccc3c(c2)CN(C2CCC(=O)NC2=O)C3=O)CC1 (stereo not shown) [GT-04503, 3-(5-((4-(4-methylthiophen-3-yl)-3,6-dihydropyridin-1(2H)-yl)methyl)-1-oxoisoindolin-2-yl)piperidine-2,6-dione]
- IC50 (Jurkat): < 1 nM
- IC50 [1]: < 500 nM
- IC50 (MGC803): 5 to 10 nM
- IC50 [2]: 1 to 5 nM
- IC50 (Vcap): 1 to 5 nM
- IC50 (SW620): 1 to 5 nM
- IC50 [3]: < 1 nM
- CK1a substrate protein remaining % (CK1α; [4]): A (0% ≤ substrate protein remaining % ≤ 80%)
- IKZF2 substrate protein remaining % (IKZF2; [4]): A (0% ≤ substrate protein remaining % ≤ 80%)
- IC50 (MM.1R): 1 to 5 nM
- IC50 (SR): 1 to 5 nM
- IC50 (NCI-H1975): 1 to 5 nM
- IKZF 1 substrate protein remaining % (IKZF1; [4]): A (0% ≤ substrate protein remaining % ≤ 80%)
- GSPT1 substrate protein remaining % (GSPT1; [4]): A (0% ≤ substrate protein remaining % ≤ 80%)
- IKZF3 substrate protein remaining % (IKZF3; [4]): A (0% ≤ substrate protein remaining % ≤ 80%)
- IC50 (CAL-62): < 1 nM
- IC50 (CCRF-CEM): < 1 nM
- Weel substrate protein remaining % (WEE1; [4]): A (0% ≤ substrate protein remaining % ≤ 80%)

SMILES: O=C1CCC(N2C(=O)c3ccc(CN4CCN(c5nccc(Cl)c5Br)CC4)cc3C2=O)C(=O)N1 (stereo not shown) [GT-06601, 5-((4-(3-bromo-4-chloropyridin-2-yl)piperazin-1-yl)methyl)-2-(2,6-dioxopiperidin-3-yl)isoindoline-1,3-dione]
- CK1a substrate protein remaining % (CK1α; [5]): B (80%< substrate protein remaining %≤ 100%)
- IC50 (MV-4-11; [6]): 100 to 500 nM
- IKZF2 substrate protein remaining % (IKZF2; [5]): B (80%< substrate protein remaining %≤ 100%)
- IKZF 1 substrate protein remaining % (IKZF1; [5]): B (80%< substrate protein remaining %≤ 100%)
- GSPT1 substrate protein remaining % (GSPT1; [5]): A (0% ≤ substrate protein remaining % ≤ 80%)
- IKZF3 substrate protein remaining % (IKZF3; [5]): B (80%< substrate protein remaining %≤ 100%)
- Weel substrate protein remaining % (WEE1; [5]): B (80%< substrate protein remaining %≤ 100%)

SMILES: O=C1CCC(N2C(=O)c3ccc(CN4CC=C(c5ccnc(F)c5F)CC4)cc3C2=O)C(=O)N1 (stereo not shown) [GT-06614, 5-((2',3'-difluoro-3,6-dihydro-[4,4'-bipyridin]-1(2H)-yl)methyl)-2-(2,6-dioxopiperidin-3-yl)isoindoline-1,3-dione]
- CK1a substrate protein remaining % (CK1α; [5]): A (0% ≤ substrate protein remaining % ≤ 80%)
- IC50 (MV-4-11; [6]): 10 to 50 nM
- IKZF2 substrate protein remaining % (IKZF2; [5]): B (80%< substrate protein remaining %≤ 100%)
- IKZF 1 substrate protein remaining % (IKZF1; [5]): B (80%< substrate protein remaining %≤ 100%)
- GSPT1 substrate protein remaining % (GSPT1; [5]): A (0% ≤ substrate protein remaining % ≤ 80%)
- IKZF3 substrate protein remaining % (IKZF3; [5]): B (80%< substrate protein remaining %≤ 100%)
- Weel substrate protein remaining % (WEE1; [5]): B (80%< substrate protein remaining %≤ 100%)

SMILES: O=C1CCC(N2C(=O)c3ccc(CN4CCN(c5ccnc(Cl)c5F)CC4)cc3C2=O)C(=O)N1 (stereo not shown) [GT-06620, 5-((4-(2-chloro-3-fluoropyridin-4-yl)piperazin-1-yl)methyl)-2-(2,6-dioxopiperidin-3-yl)isoindoline-1,3-dione]
- CK1a substrate protein remaining % (CK1α; [5]): B (80%< substrate protein remaining %≤ 100%)
- IC50 (MV-4-11; [6]): 100 to 500 nM
- IKZF2 substrate protein remaining % (IKZF2; [5]): B (80%< substrate protein remaining %≤ 100%)
- IKZF 1 substrate protein remaining % (IKZF1; [5]): B (80%< substrate protein remaining %≤ 100%)
- GSPT1 substrate protein remaining % (GSPT1; [5]): A (0% ≤ substrate protein remaining % ≤ 80%)
- IKZF3 substrate protein remaining % (IKZF3; [5]): A (0% ≤ substrate protein remaining % ≤ 80%)
- Weel substrate protein remaining % (WEE1; [5]): B (80%< substrate protein remaining %≤ 100%)

Now from value to compound, other results behind:

- IC50 (MV-4-11; [6]): 100 to 500 nM
SMILES: O=C1CCC(N2C(=O)c3ccc(CN4CCN(c5ncnc(Cl)c5Cl)CC4)cc3C2=O)C(=O)N1 (stereo not shown) [GT-06623, 5-((4-(5,6-dichloropyrimidin-4-yl)piperazin-1-yl)methyl)-2-(2,6-dioxopiperidin-3-yl)isoindoline-1,3-dione]

- IC50 (MV-4-11; [6]): 100 to 500 nM
SMILES: O=C1CCC(N2C(=O)c3ccc(CN4CCN(c5cc(Cl)nnc5Cl)CC4)cc3C2=O)C(=O)N1 (stereo not shown) [GT-06625, 5-((4-(3,6-dichloropyridazin-4-yl)piperazin-1-yl)methyl)-2-(2,6-dioxopiperidin-3-yl)isoindoline-1,3-dione]
- CK1a substrate protein remaining % (CK1α; [5]): B (80%< substrate protein remaining %≤ 100%)
- IKZF2 substrate protein remaining % (IKZF2; [5]): B (80%< substrate protein remaining %≤ 100%)
- IKZF 1 substrate protein remaining % (IKZF1; [5]): B (80%< substrate protein remaining %≤ 100%)
- GSPT1 substrate protein remaining % (GSPT1; [5]): A (0% ≤ substrate protein remaining % ≤ 80%)
- IKZF3 substrate protein remaining % (IKZF3; [5]): B (80%< substrate protein remaining %≤ 100%)
- Weel substrate protein remaining % (WEE1; [5]): B (80%< substrate protein remaining %≤ 100%)

- IC50 (MV-4-11; read-out: inhibitory activity (IC50, nM) against tumor cells proliferation, MV-4-11): 50 to 100 nM
SMILES: O=C1CCC(N2C(=O)c3ccc(CN4CCN(c5ncncn5)CC4)cc3C2=O)C(=O)N1 (stereo not shown) [GT-06626, 5-((4-(1,3,5-triazin-2-yl)piperazin-1-yl)methyl)-2-(2,6-dioxopiperidin-3-yl)isoindoline-1,3-dione]
- IKZF2 substrate protein remaining % (IKZF2; [5]): B (80%< substrate protein remaining %≤ 100%)
- IKZF 1 substrate protein remaining % (IKZF1; [5]): B (80%< substrate protein remaining %≤ 100%)
- GSPT1 substrate protein remaining % (GSPT1; [5]): A (0% ≤ substrate protein remaining % ≤ 80%)
- IKZF3 substrate protein remaining % (IKZF3; [5]): B (80%< substrate protein remaining %≤ 100%)
